# Assay results from ChEMBL document CHEMBL1201862, “PubChem BioAssay data set” (2004).
# Active and inactive are the calls of the source.
# Columns and labels:
# [1] = viability loss in Vero cells – cytotoxicity control for Vif-APOBEC3G degradation inhibitor project, dose response (AID 1117358); format: functional; conditions: Vero
# [2] = target: E3 ubiquitin-protein ligase Mdm2 (Homo sapiens, UniProt Q00987); test: MDM2-luc reporter signal enhancers, multi-concentration potency testing, MDM2 ubiquitin-protein ligase inhibitor program, whole-cell format, luminescence detection, 384-well microplate (AID 1394); format: functional;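 further: MDM2 E3 inhibitors raise luminescence so EC50 is for signal enhancement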
# [3] = target: NADPH oxidase 1 (Homo sapiens, UniProt Q9Y5S8); test: Late-stage luminescence-based cell-based dose response assay to identify inhibitors of NADPH oxidase 1 (NOX1): Synthesized analogs.; format: functional
# [4] = target: T1, Replicative DNA helicase DnaB (Mycobacterium tuberculosis, UniProt P9WMR3); test: DnaB intein splicing inhibitors, dose response, biochemical, cell-free fluorescence (AID 449749); format: functional
# T1 sequence (P9WMR3 whole entry): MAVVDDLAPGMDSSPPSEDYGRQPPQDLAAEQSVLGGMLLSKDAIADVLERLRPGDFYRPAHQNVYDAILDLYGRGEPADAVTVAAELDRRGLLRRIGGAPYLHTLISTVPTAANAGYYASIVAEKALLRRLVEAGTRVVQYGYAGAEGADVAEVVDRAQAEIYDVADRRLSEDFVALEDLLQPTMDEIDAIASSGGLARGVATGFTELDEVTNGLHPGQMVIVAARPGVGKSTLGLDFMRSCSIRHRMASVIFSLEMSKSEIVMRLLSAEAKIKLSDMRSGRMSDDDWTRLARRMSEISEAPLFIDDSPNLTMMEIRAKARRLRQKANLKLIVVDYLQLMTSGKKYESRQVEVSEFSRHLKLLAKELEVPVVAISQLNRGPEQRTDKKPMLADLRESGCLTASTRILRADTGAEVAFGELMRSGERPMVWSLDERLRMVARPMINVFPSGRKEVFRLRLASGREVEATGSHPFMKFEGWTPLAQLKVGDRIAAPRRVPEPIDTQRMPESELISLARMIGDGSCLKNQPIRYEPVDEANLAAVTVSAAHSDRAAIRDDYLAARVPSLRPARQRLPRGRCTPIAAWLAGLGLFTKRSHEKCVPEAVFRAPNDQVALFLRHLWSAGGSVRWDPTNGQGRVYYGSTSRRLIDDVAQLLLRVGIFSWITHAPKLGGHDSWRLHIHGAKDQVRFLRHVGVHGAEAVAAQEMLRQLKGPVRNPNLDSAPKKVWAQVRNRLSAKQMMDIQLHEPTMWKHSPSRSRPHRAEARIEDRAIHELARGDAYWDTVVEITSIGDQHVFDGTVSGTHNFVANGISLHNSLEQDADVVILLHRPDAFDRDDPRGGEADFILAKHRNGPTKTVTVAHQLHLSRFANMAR
# [5] = HEK-293T viability loss after treatment – luminescence, T-cell screen hits, cytotoxicity control for TCR NF-kB inhibitor project, dose response (AID 489026); format: functional, cell-based;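 further: cells exposed to compound about 14 hours before the viability readout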
# [6] = target: Heat shock protein HSP 90-alpha (Homo sapiens, UniProt P07900); test: Luminescence-based dose response biochemical high throughput screening assay for inhibitors of the Heat Shock Protein 90 (HSP90). [Related pubchem assays: 1831 (Summary AID.), 1846 (Confirmation screen.), 1789 (Primary screen.)]
# [7] = system: Streptococcus sp. 'group A'; test: Streptococcus pyogenes SK(-)GAS viability under kanamycin – luminescence, BacTiterGlo, confirmation, counter-screen for streptokinase expression inhibitor project, dose response (AID 1900); format: functional, organism-based
# [8] = target: T2, Protein RecA (Mycobacterium tuberculosis, UniProt P9WHJ3); test: Fluorescence Cell-Free Homogeneous Dose Retest to Identify Inhibitors of RecA-Intein Splicing Activity. [Related pubchem assays (depositor defined):AID2097, AID2223, AID489010, AID492950]; format: functional
# T2 sequence (P9WHJ3 whole entry): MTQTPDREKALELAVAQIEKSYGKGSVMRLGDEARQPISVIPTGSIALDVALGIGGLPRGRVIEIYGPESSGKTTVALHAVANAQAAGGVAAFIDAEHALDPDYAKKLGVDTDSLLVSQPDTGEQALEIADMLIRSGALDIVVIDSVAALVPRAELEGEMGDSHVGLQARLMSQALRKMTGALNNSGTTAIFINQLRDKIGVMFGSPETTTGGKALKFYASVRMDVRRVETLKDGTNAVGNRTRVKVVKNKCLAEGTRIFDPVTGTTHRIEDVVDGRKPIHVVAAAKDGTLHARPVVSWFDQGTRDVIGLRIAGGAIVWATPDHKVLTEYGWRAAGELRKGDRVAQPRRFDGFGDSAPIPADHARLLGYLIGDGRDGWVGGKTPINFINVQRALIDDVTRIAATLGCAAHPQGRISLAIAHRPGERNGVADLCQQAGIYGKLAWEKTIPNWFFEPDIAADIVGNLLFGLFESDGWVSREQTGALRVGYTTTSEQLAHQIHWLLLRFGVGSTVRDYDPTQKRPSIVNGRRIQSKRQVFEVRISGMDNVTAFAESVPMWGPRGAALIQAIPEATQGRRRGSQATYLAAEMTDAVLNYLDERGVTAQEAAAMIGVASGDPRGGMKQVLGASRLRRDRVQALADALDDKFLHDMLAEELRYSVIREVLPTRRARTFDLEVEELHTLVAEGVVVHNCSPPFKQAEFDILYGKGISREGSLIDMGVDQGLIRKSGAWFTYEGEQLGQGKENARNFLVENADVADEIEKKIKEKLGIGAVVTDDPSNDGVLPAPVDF
# [9] = target: T3, Apoptotic protease-activating factor 1 (Homo sapiens, UniProt O14727); format: functional
# T3 sequence (O14727 whole entry): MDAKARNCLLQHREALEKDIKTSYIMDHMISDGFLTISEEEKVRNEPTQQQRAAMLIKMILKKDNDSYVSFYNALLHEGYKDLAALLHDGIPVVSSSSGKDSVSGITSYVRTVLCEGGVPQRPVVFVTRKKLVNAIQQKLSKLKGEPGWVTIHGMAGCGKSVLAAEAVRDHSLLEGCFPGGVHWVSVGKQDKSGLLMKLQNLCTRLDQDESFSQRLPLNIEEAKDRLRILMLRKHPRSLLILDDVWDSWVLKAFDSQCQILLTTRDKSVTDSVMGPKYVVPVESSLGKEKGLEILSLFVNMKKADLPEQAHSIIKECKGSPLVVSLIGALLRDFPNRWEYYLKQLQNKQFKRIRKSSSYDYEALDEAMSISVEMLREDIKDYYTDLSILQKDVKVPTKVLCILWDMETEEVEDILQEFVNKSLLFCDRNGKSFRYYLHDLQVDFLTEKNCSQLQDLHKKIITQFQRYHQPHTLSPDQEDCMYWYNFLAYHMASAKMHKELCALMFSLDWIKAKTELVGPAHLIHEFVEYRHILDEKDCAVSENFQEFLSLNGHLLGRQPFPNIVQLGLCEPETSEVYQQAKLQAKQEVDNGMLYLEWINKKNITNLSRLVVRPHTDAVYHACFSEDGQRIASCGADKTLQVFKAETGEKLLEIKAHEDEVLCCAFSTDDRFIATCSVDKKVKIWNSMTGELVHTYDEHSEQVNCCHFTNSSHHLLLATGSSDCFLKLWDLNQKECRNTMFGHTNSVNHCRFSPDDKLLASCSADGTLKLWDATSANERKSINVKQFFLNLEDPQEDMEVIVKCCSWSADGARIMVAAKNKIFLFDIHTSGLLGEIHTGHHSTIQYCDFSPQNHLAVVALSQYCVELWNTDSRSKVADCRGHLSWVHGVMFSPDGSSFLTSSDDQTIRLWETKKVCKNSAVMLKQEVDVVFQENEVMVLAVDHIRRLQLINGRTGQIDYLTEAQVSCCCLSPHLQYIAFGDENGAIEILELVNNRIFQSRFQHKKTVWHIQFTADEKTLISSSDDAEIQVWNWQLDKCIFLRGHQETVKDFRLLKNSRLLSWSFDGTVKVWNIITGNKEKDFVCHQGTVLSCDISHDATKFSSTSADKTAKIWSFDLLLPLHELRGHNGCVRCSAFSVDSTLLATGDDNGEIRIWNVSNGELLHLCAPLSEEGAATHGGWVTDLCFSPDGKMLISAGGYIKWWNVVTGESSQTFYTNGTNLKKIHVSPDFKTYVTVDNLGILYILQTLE
# [10] = system: INS1; test: INS-1E survival protection against cytokine death – cell-based, luminescence, retest, dose response (AID 449756); format: functional; conditions: Rattus norvegicus;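 further: cell death triggered by IL-1 beta plus TNF-alpha plus IFN-gamma mixture; protective hits raise ATP signal compared with cytokine alone wells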
# [11] = target: Protein-tyrosine kinase 2-beta (Homo sapiens, UniProt Q14289);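 further: potency of inhibitors of PYK2 kinase phosphorylation of poly-GT substrate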
# [12] = system: Streptococcus; test: GAS UMAA2166 growth inhibition – luminescence, BacTiterGlo, counter-screen for streptokinase expression inhibitor project, dose response (AID 1915); format: functional, organism-based;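 further: potency for reduction of bacterial viability or growth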
# [13] = target: Serine/threonine-protein phosphatase PP1-alpha catalytic subunit (Homo sapiens, UniProt P62136); test: inhibition of protein phosphatase 1 activity – biochemical, fluorescence, dose response (AID 2394)
# [14] = NIH3T3 cell viability loss – ATP luminescence, mouse fibroblasts, counter-screen, dose response (AID 2010); format: functional, cell-based;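 further: cells exposed to compound for about 90 hours before reading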
# [15] = Trypanosoma cruzi growth suppression in host cells – NIH3T3 host cells, beta-gal luminescence, confirmation (AID 2044); format: functional, cell-based;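 further: intracellular parasites grown in NIH/3T3 mouse fibroblasts as host cells; luminescent beta-galactosidase reporter signal from transgenic T. cruzi replicating inside host cells; inhibitors lower the luminescence signal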
# [16] = target: Serine/threonine-protein phosphatase (Homo sapiens, UniProt Q9BPW0); test: inhibition of protein phosphatase 5 activity – biochemical, fluorescence, dose response (AID 2395)
# [17] = microbe, parasite or virus in culture; format: functional; conditions: Mycobacterium tuberculosis
# [18] = target: Mitochondrial peptide methionine sulfoxide reductase (Bos taurus, UniProt P54149); format: functional;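 further: absorbance read-out, biochemical high-throughput dose-response screen for MsrA inhibitors, confirmatory; recombinant bovine MsrA coupled to E. coli TrxB with NADPH and selenocystamine; potency is for inhibitors of MsrA activity on DMSO substrate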
# [19] = system: Vero; test: viability of Vero cells under compound – cytotoxicity control for flavivirus capping enzyme inhibitors (AID 588742); format: functional; conditions: Chlorocebus sabaeus
# Chain of Serine/threonine-protein phosphatase (Q9BPW0 whole entry): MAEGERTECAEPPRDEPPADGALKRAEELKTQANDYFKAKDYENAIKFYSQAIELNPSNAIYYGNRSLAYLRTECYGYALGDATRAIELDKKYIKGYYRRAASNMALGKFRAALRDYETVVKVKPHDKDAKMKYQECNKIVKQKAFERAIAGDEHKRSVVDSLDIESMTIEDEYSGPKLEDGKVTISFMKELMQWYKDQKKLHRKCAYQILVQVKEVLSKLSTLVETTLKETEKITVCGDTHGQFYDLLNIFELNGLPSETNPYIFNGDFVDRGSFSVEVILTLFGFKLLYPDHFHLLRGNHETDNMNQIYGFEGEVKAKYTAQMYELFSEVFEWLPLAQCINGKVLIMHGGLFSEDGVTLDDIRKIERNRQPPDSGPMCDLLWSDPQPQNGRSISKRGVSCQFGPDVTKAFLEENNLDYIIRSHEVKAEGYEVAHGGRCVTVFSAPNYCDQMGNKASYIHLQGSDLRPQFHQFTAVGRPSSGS
# Chain of Mitochondrial peptide methionine sulfoxide reductase (P54149 whole entry): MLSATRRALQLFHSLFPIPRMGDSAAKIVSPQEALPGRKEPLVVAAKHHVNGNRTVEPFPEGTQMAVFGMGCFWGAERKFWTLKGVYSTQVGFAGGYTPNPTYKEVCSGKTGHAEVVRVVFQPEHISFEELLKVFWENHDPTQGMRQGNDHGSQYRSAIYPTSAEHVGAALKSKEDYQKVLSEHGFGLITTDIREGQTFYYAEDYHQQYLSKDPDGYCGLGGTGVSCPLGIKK
# Chain of Protein-tyrosine kinase 2-beta (Q14289 whole entry): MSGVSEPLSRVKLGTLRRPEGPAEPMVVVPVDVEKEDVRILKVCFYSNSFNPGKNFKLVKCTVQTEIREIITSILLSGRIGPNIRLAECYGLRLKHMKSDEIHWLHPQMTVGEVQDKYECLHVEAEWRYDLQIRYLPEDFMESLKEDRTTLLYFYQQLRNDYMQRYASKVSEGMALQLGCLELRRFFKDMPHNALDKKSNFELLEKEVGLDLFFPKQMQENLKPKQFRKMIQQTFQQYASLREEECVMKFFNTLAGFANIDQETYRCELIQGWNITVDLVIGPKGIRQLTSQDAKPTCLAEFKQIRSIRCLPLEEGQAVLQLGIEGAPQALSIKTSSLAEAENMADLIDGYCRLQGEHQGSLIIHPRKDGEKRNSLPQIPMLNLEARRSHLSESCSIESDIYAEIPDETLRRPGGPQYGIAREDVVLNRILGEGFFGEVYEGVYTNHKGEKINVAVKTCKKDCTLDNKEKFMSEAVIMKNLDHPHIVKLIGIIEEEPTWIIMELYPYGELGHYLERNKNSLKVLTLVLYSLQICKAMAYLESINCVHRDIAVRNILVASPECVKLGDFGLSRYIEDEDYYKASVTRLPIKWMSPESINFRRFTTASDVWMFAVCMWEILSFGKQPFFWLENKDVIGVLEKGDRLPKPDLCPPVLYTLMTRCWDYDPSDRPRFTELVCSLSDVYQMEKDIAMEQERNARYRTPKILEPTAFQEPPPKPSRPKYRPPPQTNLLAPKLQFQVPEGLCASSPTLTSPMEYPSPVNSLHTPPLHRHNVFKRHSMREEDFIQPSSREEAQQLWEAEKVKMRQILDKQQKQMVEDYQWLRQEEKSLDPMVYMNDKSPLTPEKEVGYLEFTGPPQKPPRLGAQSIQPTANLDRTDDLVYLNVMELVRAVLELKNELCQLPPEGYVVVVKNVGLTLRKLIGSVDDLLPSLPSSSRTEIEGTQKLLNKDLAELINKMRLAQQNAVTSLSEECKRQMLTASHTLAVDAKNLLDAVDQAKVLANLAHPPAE
# Chain of Serine/threonine-protein phosphatase PP1-alpha catalytic subunit (P62136 whole entry): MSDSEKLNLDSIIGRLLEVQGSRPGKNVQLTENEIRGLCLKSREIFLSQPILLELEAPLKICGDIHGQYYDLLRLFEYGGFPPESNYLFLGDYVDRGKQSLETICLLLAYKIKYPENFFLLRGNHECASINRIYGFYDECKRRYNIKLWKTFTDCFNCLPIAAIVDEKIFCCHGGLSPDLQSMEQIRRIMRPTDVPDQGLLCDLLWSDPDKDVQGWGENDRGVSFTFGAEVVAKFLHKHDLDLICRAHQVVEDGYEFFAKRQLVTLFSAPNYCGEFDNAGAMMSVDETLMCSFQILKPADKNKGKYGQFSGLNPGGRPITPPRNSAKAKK
# Chain of NADPH oxidase 1 (Q9Y5S8 whole entry): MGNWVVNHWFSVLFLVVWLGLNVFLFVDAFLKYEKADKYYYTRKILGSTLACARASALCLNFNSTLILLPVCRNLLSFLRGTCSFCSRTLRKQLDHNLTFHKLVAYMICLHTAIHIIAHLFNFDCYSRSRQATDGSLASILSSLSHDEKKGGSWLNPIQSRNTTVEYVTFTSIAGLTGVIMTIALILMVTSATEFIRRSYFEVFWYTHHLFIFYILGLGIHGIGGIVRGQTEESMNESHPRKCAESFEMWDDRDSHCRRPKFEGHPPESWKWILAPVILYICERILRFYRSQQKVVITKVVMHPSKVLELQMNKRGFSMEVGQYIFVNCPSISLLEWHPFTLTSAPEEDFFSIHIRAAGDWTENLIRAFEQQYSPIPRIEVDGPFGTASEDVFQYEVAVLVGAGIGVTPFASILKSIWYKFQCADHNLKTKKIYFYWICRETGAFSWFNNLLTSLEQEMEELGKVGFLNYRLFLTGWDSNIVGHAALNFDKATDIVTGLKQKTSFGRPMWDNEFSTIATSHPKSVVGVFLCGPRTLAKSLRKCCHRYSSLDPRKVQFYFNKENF
# Chain of E3 ubiquitin-protein ligase Mdm2 (Q00987 whole entry): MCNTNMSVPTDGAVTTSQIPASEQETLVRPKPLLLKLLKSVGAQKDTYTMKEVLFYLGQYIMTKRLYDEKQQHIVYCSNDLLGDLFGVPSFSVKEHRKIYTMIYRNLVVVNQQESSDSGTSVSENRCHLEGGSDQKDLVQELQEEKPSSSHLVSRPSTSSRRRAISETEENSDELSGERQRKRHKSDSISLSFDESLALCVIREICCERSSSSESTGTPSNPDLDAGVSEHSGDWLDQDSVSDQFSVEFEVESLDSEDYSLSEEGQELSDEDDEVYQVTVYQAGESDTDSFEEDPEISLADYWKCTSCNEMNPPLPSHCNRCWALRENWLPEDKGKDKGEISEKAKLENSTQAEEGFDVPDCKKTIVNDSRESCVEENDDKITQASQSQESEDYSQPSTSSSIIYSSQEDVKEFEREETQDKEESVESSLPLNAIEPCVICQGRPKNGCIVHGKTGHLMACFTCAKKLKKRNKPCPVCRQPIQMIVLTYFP
structure (smiles),measurement,setting,value
COc1cc(C(=O)NCc2nnc(SCC(=O)Nc3nc4ccc(C)cc4s3)o2)cc(OC)c1OC,CC50,[1],> 40 µM (active)
CCN(CC)C(=O)CN1CCN(c2ncccn2)CC1,EC50,[2],16.1 µM (not active)
O=C(/C=C/c1ccccc1)N1c2ccccc2Sc2ccc(C(F)(F)F)cc21,IC50,[3],> 50 µM (not active)
Cc1ccccc1NC1=C/C(=N\S(=O)(=O)c2cccs2)c2ccccc2C1=O,AC50,[4],> 120 µM (inactive)
same,IC50,[5],0.44 µM (active)
same,IC50,[6],0.438 µM (active)
same,EC50,[7],0.701 µM (active)
same,EC50,[8],0.654 µM (active)
same,IC50,[9],0.335 µM (active)
same,AC50,[10],0.413 µM (active)
same,IC50,[11],> 69.5 µM (not active)
same,EC50,[12],4.55 µM (active)
same,IC50,[13],> 22.3 µM (not active)
same,EC50,[14],1.95 µM (active)
same,EC50,[15],1.04 µM (active)
same,IC50,[16],1.83 µM (active)
same,CC50,[17],3.13 µM (active)
same,IC50,[18],692 µM (inactive)
same,CC50,[19],4.33 µM (active)
